Patent publication US11401253B2, “16-methyl-oxacyclohexadecan-2-one and 16-methyl-azacyclohexadecan-2-one derivatives as antimicrobial agents” (THE UNIVERSITY OF MONTANA, priority 2017, dated 2022)
Values after ≈ are worked out from the molar mass of the structure shown. Values joined by “and” are separate entries in the source; they are usually repeats but may differ in a detail not shown here. Equal values may be shown once.

Columns and labels:
GFP synthesis = assay: Cell-free translation assay with GFP reporter; type: biochemical; conditions: 50 μM, 37° C., readings for 2 hr
Experimental: Further assessment of the effect of BPL76 on protein translation was done using a cell-free translation assay. The plasmid pY71-sfGFP^55 (5 ng) was translated in the PUREexpress in vitro protein synthesis system (New England Biolabs). The final concentrations of erythromycin, josamycin and tylosin in the translation reactions were 50 μM. The reactions were incubated at 37° C. and fluorescence readings (excitation: 488 nm, emission, 520 nm) were taken every 20 min for 2 hr.

Enterococcus faecalis = assay: Antibiotic testing (MIC), Enterococcus faecalis; type: cell-based; conditions: growth inhibition ≥90%, read-out: minimum inhibitory concentration, Enterococcus faecalis
[1] = system: non-replicating persistence Mycobacterium tuberculosis (NRP-TB); assay: Low oxygen recovery assay (LORA), non-replicating persistence Mtb; type: cell-based; conditions: for MIC: Mycobacterium tuberculosis, non-replicating persistence, hypoxic conditions, read-out: MIC, LORA
Candida glabrata = assay: Antibiotic testing (MIC), Candida glabrata; type: cell-based; conditions: Nakaseomyces glabratus; growth inhibition ≥90%; read-out: minimum inhibitory concentration, Candida glabrata
MMP-3 = biological target: T1, MMP-3 (Homo sapiens, UniProt P08254); assay: MMP-3 enzyme inhibition assay; type: biochemical
T1 construct: purchased BioMol
Experimental: The two fungi were also co-cultured under controlled conditions. P. fuscum was grown in pure culture in potato dextrose broth (10×400 mL). After 24 h, an agar cube (8 mm^3) impregnated with P. camembertii/clavigerum mycelium was added to each flask and the resulting co-culture was shaken for 6 more days (200 rpm, room temperature). At time of harvest, methanol (50 mL/flask) was added, the mycelia were removed by gravity filtration and the broth was extracted with chloroform (3×2 L). The chloroform was removed in vacuo to yield 663 mg of crude extract. The crude extract was verified to be active in the MMP-3, caspase-1 and caspase-3 enzyme inhibition assays. Enzyme inhibitory activity was determined using specific BioMol enzyme inhibition assay kits for drug discovery as described in Stierle, A; Stierle, D. The Berkeleylactones, Antibiotic Macrolides from Fungal Coculture. J. Nat. Prod. 80, 4, 1150-1160.

[2] = system: Staphylococcus aureus (13709); assay: Antibiotic testing (MIC), S. aureus 13709; type: cell-based; conditions: growth inhibition ≥90% relative to drug-free controls, read-out: minimum inhibitory concentration, Staphylococcus aureus (13709)
S. aureus CAIRD142 = assay: Antibiotic testing, methicillin-resistant S. aureus CAIRD142; type: cell-based; conditions: methicillin-resistant strain; for MIC: Staphylococcus aureus, CAIRD142
Source text: (§1) Both the methyl ester and the diacetate derivatives of BPL 76 slightly less but still very strong activity against the same four MRSA strains (Table 11). The activities of compounds BPL 76 and BPL 81 were compared to several known antibiotics against three methicillin-resistant strains of S. aureus [FIG. 6, comparative data provided by Hartford Hospital, Center for Anti-Infective Research and Development (CAIRD)].

P. aeruginosa = assay: Antibiotic testing (MIC), gram negative P. aeruginosa; type: cell-based; conditions: Pseudomonas aeruginosa; read-out: MIC, P. aeruginosa
Experimental: (§2) None of this collection of compounds were active against Gram-negative bacteria
(§3) Additionally, BPL 76 and derivatives were tested against a panel of gram negative bacteria including K. pneumonia, P. aeruginosa and E. coli (Table 12).

S. aureus CAIRD116 = assay: Antibiotic testing, methicillin-resistant S. aureus CAIRD116; type: cell-based; conditions: methicillin-resistant strain; for MIC: Staphylococcus aureus, CAIRD116
Source text: as §1

Vero cell = assay: Cytotoxicity (MTS), Vero cells; type: cell-based, monkey; conditions: Primates, 72 hours exposure
B. anthracis = assay: microbe, parasite or virus in culture; type: cell-based; conditions: Bacillus anthracis, read-out: minimum inhibitory concentration, B. anthracis
S. aureus (NE277) = assay: Antibiotic testing, methicillin-resistant S. aureus NE277; type: cell-based; conditions: for MIC: Staphylococcus aureus, read-out: antibiotic testing data (MIC), S. aureus (NE277)
Source text: as §1

K. pneumoniae (10031) = assay: Antibiotic testing (MIC), gram negative K. pneumoniae; type: cell-based; conditions: Klebsiella pneumoniae; read-out: MIC, K. pneumoniae (10031)
Experimental: as §2, §3

HepG2 = assay: Cytotoxicity (MTS), HepG2 cells; type: cell-based; conditions: Homo sapiens, 72 hours exposure
E. coli (25922) = assay: Antibiotic testing (MIC), gram negative E. coli; type: cell-based; conditions: Escherichia coli; read-out: MIC, E. coli (25922)
Experimental: as §2, §3

Streptococcus pyogenes = assay: Antibiotic testing (MIC), Streptococcus pyogenes; type: cell-based; conditions: growth inhibition ≥90%, read-out: minimum inhibitory concentration, Streptococcus pyogenes
C. albicans = assay: Antibiotic testing (MIC), C. albicans; type: cell-based; conditions: Candida albicans; growth inhibition ≥90%; read-out: minimum inhibitory concentration, C. albicans
[3] = system: Mycobacterium tuberculosis; assay: microbe, parasite or virus in culture; conditions: read-out: MIC, MABA
Bacillus subtilis = assay: Antibiotic testing (MIC), Bacillus subtilis; type: cell-based; conditions: growth inhibition ≥90%, read-out: minimum inhibitory concentration, Bacillus subtilis
J774 = assay: Cytotoxicity (MTS), J774 cells; type: cell-based, murine; conditions: Mus musculus, 72 hours exposure
S. aureus CAIRD148 = assay: Antibiotic testing, methicillin-resistant S. aureus CAIRD148; type: cell-based; conditions: methicillin-resistant strain; for MIC: Staphylococcus aureus, CAIRD148
Source text: as §1

[4] = system: Mycobacterium tuberculosis; conditions: MABA

T1 sequence (P08254 100-477): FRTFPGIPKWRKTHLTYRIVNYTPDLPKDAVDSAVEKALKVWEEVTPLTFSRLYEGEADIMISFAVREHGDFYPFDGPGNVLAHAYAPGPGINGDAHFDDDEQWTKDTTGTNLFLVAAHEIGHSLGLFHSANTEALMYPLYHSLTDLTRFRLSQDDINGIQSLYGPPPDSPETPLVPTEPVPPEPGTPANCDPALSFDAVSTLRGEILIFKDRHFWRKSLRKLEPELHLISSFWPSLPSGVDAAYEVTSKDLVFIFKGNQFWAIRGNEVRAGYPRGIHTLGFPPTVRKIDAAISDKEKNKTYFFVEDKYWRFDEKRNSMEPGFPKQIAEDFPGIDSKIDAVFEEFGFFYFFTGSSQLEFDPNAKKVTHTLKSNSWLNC

Structure (SMILES): CC[C@H]1OC(=O)C[C@@H](O)[C@H](C)[C@@H](O[C@@H]2O[C@H](C)[C@@H](O[C@H]3C[C@@](C)(O)[C@@H](O)[C@H](C)O3)[C@H](N(C)C)[C@H]2O)[C@@H](CC=O)C[C@@H](C)C(=O)/C=C/C(C)=C/[C@@H]1CO[C@@H]1O[C@H](C)[C@@H](O)[C@@H](OC)[C@H]1OC [tylosin]
- inhibition of GFP synthesis and corresponding fluorescence (GFP synthesis): effectively inhibited

Structure (SMILES): CC[C@H]1OC(=O)[C@H](C)[C@@H](O[C@H]2C[C@@](C)(OC)[C@@H](O)[C@H](C)O2)[C@H](C)[C@@H](O[C@@H]2O[C@H](C)C[C@H](N(C)C)[C@H]2O)[C@](C)(O)C[C@@H](C)C(=O)[C@H](C)[C@@H](O)[C@]1(C)O [erythromycin]
- inhibition of GFP synthesis and corresponding fluorescence (GFP synthesis): effectively inhibited

Structure (SMILES): C[C@@H]1CCCCCCCCC[C@H](OC(=O)CCC(=O)O)C(=O)C[C@@H](SC[C@@H](O)C(=O)O)C(=O)O1 [BPL 88, 4-(((3R,6S,16R)-3-(((S)-2-carboxy-2-hydroxyethyl)thio)-16-methyl-2,5-dioxooxacyclohexadecan-6-yl)oxy)-4-oxobutanoic acid]
- MIC (Enterococcus faecalis): 31 µg/mL (≈ 61.4 µM)
- MIC [1]: 46 µg/mL (≈ 91.2 µM)
- MIC (Candida glabrata): 31 µg/mL (≈ 61.4 µM)
- MMP-3 inhibition (MMP-3): weaker inhibitors
- MIC [2]: 4 µg/mL (≈ 7.93 µM)
- MIC (S. aureus CAIRD142): 15 µg/mL (≈ 29.7 µM)
- MIC (P. aeruginosa): > 250 µM
- MIC (S. aureus CAIRD116): 15 µg/mL (≈ 29.7 µM)
- IC50 (Vero cell): > 100 µg/mL
- MIC (B. anthracis): 8 µg/mL (≈ 15.9 µM)
- MIC (S. aureus (NE277)): 8 µg/mL (≈ 15.9 µM)
- MIC (K. pneumoniae (10031)): > 250 µM
- IC50 (HepG2): > 100 µg/mL
- MIC (E. coli (25922)): > 250 µM
- MIC (Streptococcus pyogenes): 119 µg/mL (≈ 236 µM)
- MIC (C. albicans): > 119 µg/mL
- MIC [3]: > 100 µg/mL
- MIC (Bacillus subtilis): 31 µg/mL (≈ 61.4 µM)
- IC50 (J774): 42.5 µg/mL (≈ 84.3 µM)
- MIC (S. aureus CAIRD148): 8 µg/mL (≈ 15.9 µM)

Structure (SMILES): COC(=O)[C@@H](CS[C@@H]1CC(=O)[C@@H](OC(C)=O)CCCCCCCCC[C@@H](C)OC1=O)OC(C)=O [BPL 76-diacetate, methyl (S)-2-acetoxy-3-(((3R,6S,16R)-6-acetoxy-16-methyl-2,5-dioxooxacyclohexadecan-3-yl)thio)propanoate]
- MIC (Enterococcus faecalis): 15 µg/mL (≈ 29.8 µM)
- MIC (Candida glabrata): > 125 µg/mL
- MIC [2]: 2 µg/mL (≈ 3.98 µM)
- MIC (S. aureus CAIRD142): 7 µg/mL (≈ 13.9 µM)
- MIC (P. aeruginosa): > 125 µM
- MIC (S. aureus CAIRD116): 4 µg/mL (≈ 7.96 µM)
- MIC (B. anthracis): 4 µg/mL (≈ 7.96 µM)
- MIC (S. aureus (NE277)): 4 µg/mL (≈ 7.96 µM)
- MIC (K. pneumoniae (10031)): > 125 µM
- MIC (E. coli (25922)): > 125 µM
- MIC (Streptococcus pyogenes): 15 µg/mL (≈ 29.8 µM)
- MIC (C. albicans): > 125 µg/mL
- MIC (Bacillus subtilis): 7 µg/mL (≈ 13.9 µM)
- MIC (S. aureus CAIRD148): 4 µg/mL (≈ 7.96 µM)

Structure (SMILES): COC(=O)[C@H](O)CS[C@@H]1CC(=O)[C@@H](O)CCCCCCCCC[C@@H](C)OC1=O [BPL 76-Me ester, methyl (S)-2-hydroxy-3-(((3R,6S,16R)-6-hydroxy-16-methyl-2,5-dioxooxacyclohexadecan-3-yl)thio)propanoate]
- MIC (Enterococcus faecalis): 3 µg/mL (≈ 7.17 µM)
- MIC [1]: 19 µg/mL (≈ 45.4 µM)
- MIC (Candida glabrata): 7 µg/mL (≈ 16.7 µM)
- MIC [2]: 1 µg/mL (≈ 2.39 µM)
- MIC (S. aureus CAIRD142): 2 µg/mL (≈ 4.78 µM)
- MIC (P. aeruginosa): > 250 µM
- MIC (S. aureus CAIRD116): 2 µg/mL (≈ 4.78 µM)
- IC50 (Vero cell): 74 µg/mL (≈ 177 µM)
- MIC (B. anthracis): 1 µg/mL (≈ 2.39 µM)
- MIC (S. aureus (NE277)): 2 µg/mL (≈ 4.78 µM)
- MIC (K. pneumoniae (10031)): 250 µM and 105 µg/mL
- IC50 (HepG2): 55.6 µg/mL (≈ 133 µM)
- MIC (E. coli (25922)): 125 µM and 52.3 µg/mL
- MIC (Streptococcus pyogenes): 3 µg/mL (≈ 7.17 µM)
- MIC (C. albicans): 13 µg/mL (≈ 31.1 µM)
- MIC [3]: 32 µg/mL (≈ 76.5 µM)
- MIC (Bacillus subtilis): 3 µg/mL (≈ 7.17 µM)
- IC50 (J774): 38 µg/mL (≈ 90.8 µM)
- MIC (S. aureus CAIRD148): 2 µg/mL (≈ 4.78 µM)

Structure (SMILES): CO[C@@H]1[C@@H](O[C@@H]2O[C@H](C)[C@@H](O[C@H]3C[C@@](C)(O)[C@@H](OC(=O)CC(C)C)[C@H](C)O3)[C@H](N(C)C)[C@H]2O)[C@@H](CC=O)C[C@@H](C)[C@@H](O)/C=C/C=C/C[C@@H](C)OC(=O)C[C@H]1OC(C)=O [josamycin]
- inhibition of GFP synthesis and corresponding fluorescence (GFP synthesis): effectively inhibited

Structure (SMILES): C[C@@H]1CCCCCCCCC[C@H](OC(=O)CCC(=O)O)[C@H](O)/C=C/C(=O)O1 [BPL 84, 4-(((5R,6S,16R,E)-5-hydroxy-16-methyl-2-oxooxacyclohexadec-3-en-6-yl)oxy)-4-oxobutanoic acid]
- activity against non-replicating Mtb (in words) ([1]; LORA): not active
- MIC [1]: > 100 µg/mL
- MIC (Candida glabrata): > 90 µg/mL
- MMP-3 inhibition (MMP-3): weaker inhibitors
- MIC [2]: 45 µg/mL (≈ 117 µM)
- MIC (S. aureus CAIRD142): > 90 µg/mL
- antibiotic testing data (MIC), S. aureus CAIRD142 (S. aureus CAIRD142): >250 µM
- MIC (P. aeruginosa): > 250 µM
- MIC (S. aureus CAIRD116): > 90 µg/mL
- antibiotic testing data (MIC), S. aureus CAIRD116 (S. aureus CAIRD116): >250 µM
- IC50 (Vero cell): > 100 µg/mL
- MIC (B. anthracis): > 90 µg/mL
- MIC (S. aureus (NE277)): > 90 µg/mL
- antibiotic testing data (MIC), S. aureus (NE277) (S. aureus (NE277); methicillin-resistant strain): >250 µM
- MIC (K. pneumoniae (10031)): > 250 µM
- IC50 (HepG2): > 100 µg/mL
- MIC (E. coli (25922)): > 250 µM
- MIC (Streptococcus pyogenes): > 90 µg/mL
- MIC (C. albicans): > 90 µg/mL
- MIC [3]: > 100 µg/mL
- activity against replicating Mtb (in words) [4]: not active
- MIC (Bacillus subtilis): > 90 µg/mL
- IC50 (J774): > 100 µg/mL
- MIC (S. aureus CAIRD148): > 90 µg/mL
- antibiotic testing data (MIC), S. aureus CAIRD148 (S. aureus CAIRD148): >250 µM
